Holding throughout (assay type): functional
The species entered for assay [1] is Rattus norvegicus. Description: Antianxiety activity in Holtzman rat assessed as dose required to elicit increase in milk consumption. As to conditions: read-out: MED.
The species named for assay [2] is Rattus norvegicus. Description: Anticonvulsant activity in rat assessed as protection against pentylenetetrazole-induced clonic seizures. As to conditions: read-out: MED.
Assay [3] is filed under the species Rattus norvegicus. Description: Ratio of diazepam MED to compound MED for antianxiety activity in Holtzman rat.

Each structure is given as a SMILES string.

For the compound `Cl.Cn1ncc2c1NC(=O)CN=C2c1ccccc1`, the minimal effective dose was over 80 mg/kg in assay [1] and 250 mg/kg in assay [2].

Regarding `Cc1nn(C)c2c1C(c1ccccc1)=NCC(=O)N2`, the minimal effective dose stood at 10 mg/kg in assay [1] and 16 mg/kg in assay [2].

Take `Cc1nn(C)c2c1C(c1ccccc1)=NCC(=O)N2C`: the minimal effective dose in assay [1] is 2.5 mg/kg; in assay [2], 4 mg/kg.

`Cc1nn(C)c2c1C(c1ccccc1)=NCC(=O)N2C.Cl`: the minimal effective dose in assay [1] came to 2.5 mg/kg; in assay [2] it was 4 mg/kg.

Turning to `Cc1nn(C)c2c1C(c1cccs1)=NCC(=O)N2`, the minimal effective dose in assay [1] came out at 40 mg/kg.

As for `CCc1nn(C)c2c1C(c1ccccc1)=NCC(=O)N2`, the figures for the minimal effective dose in assay [1] and in assay [2] were 2.5 mg/kg and 8 mg/kg, respectively.

With `CCc1nn(C)c2c1C(c1ccccc1)=NCC(=O)N2C`, the minimal effective dose in assay [1] is 1.25 mg/kg; in assay [2] it was 4 mg/kg.

Turning to `Cc1nn(C)c2c1C(c1ccccc1Cl)=NCC(=O)N2`, the figures for the minimal effective dose in assay [1] and in assay [2] were 2.5 mg/kg and 16 mg/kg, respectively.

For the compound `Cc1nn(C)c2c1C(c1ccccc1Cl)=NCC(=O)N2C.Cl`, the results for the minimal effective dose in assay [1] and in assay [2] were 2.5 mg/kg and 4 mg/kg, respectively.

On to `Cc1nn(C)c2c1C(c1cccc(Cl)c1)=NCC(=O)N2`, for which the minimal effective dose is over 40 mg/kg in assay [1] and over 500 mg/kg in assay [2].

On to `Cc1nn(C)c2c1C(c1ccccc1F)=NCC(=O)N2`, for which the minimal effective dose worked out at 2.5 mg/kg in assay [1] and 8 mg/kg in assay [2].

As for `CCN1C(=O)CN=C(c2ccccc2F)c2c(C)nn(C)c21`, the minimal effective dose in assay [1] was determined as 5 mg/kg; in assay [2], 32 mg/kg.

In the case of `CCc1nn(C)c2c1C(c1ccccc1F)=NCC(=O)N2`, the minimal effective dose amounted to 1.25 mg/kg in assay [1] and 2 mg/kg in assay [2].

In the case of `CCc1nn(C)c2c1C(c1ccccc1F)=NCC(=O)N2.Cl`, the minimal effective dose in assay [1] is 1.25 mg/kg; in assay [2], 2 mg/kg.

As to `CCc1nn(C)c2c1C(c1ccccc1F)=NCC(=O)N2C`, the minimal effective dose was determined as 1.25 mg/kg in assay [1] and 4 mg/kg in assay [2].

For `CCc1nn(C)c2c1C(c1cccc(F)c1)=NCC(=O)N2`, the figures for the minimal effective dose in assay [1] and in assay [2] were 20 mg/kg and 32 mg/kg, respectively.

`CCc1nn(C)c2c1C(c1cccc(F)c1)=NCC(=O)N2C`: the minimal effective dose in assay [1] came out at 10 mg/kg; in assay [2] it was 32 mg/kg.

Turning to `CCc1nn(C)c2c1C(c1ccc(F)cc1)=NCC(=O)N2`, the results for the minimal effective dose in assay [1] and in assay [2] were over 40 mg/kg and over 500 mg/kg, respectively.

Take `CCc1nn(C)c2c1C(c1ccc(F)cc1)=NCC(=O)N2C`: the minimal effective dose in assay [1] is over 40 mg/kg; in assay [2], over 500 mg/kg.

Turning to `Cc1nn(C)c2c1C(c1ccccc1Br)=NCC(=O)N2C`, the minimal effective dose in assay [1] is 5 mg/kg; in assay [2] it was 4 mg/kg.

Regarding `Cc1nn(C)c2c1C(c1c(F)cccc1F)=NCC(=O)N2C`, the minimal effective dose was 20 mg/kg in assay [1] and 2 mg/kg in assay [2].

Consider `Cc1nn(C)c2c1C(c1ccccc1[N+](=O)[O-])=NCC(=O)N2C`, for which the minimal effective dose in assay [2] was found to be 8 mg/kg.

In the case of `Cc1nn(C)c2c1C(c1ccccc1N=[N+]=[N-])=NCC(=O)N2C`, the minimal effective dose in assay [1] is over 40 mg/kg; in assay [2], 63 mg/kg.

On to `Cn1nc(Cl)c2c1NC(=O)CN=C2c1ccccc1`, for which the values for the minimal effective dose in assay [1] and in assay [2] were 40 mg/kg and 63 mg/kg, respectively.

Regarding `COc1nn(C)c2c1C(c1ccccc1F)=NCC(=O)N2C`, the minimal effective dose in assay [1] turned out to be 10 mg/kg; in assay [2], 8 mg/kg.

As to `CCc1nn(C)c2c1C(c1ccccc1Cl)=NCC(=O)N2`, the minimal effective dose in assay [1] stood at 2.5 mg/kg; in assay [2] it was 32 mg/kg.

Regarding `CCc1nn(C)c2c1C(c1ccccc1Cl)=NCC(=O)N2C`, the minimal effective dose in assay [1] turned out to be 0.63 mg/kg; in assay [2], 16 mg/kg.

Take `CC(C)c1nn(C)c2c1C(c1ccccc1Cl)=NCC(=O)N2`: the figures for the minimal effective dose in assay [1] and in assay [2] were over 40 mg/kg and 125 mg/kg, respectively.

For `CC(C)c1nn(C)c2c1C(c1ccccc1Cl)=NCC(=O)N2C`, the minimal effective dose in assay [1] is over 40 mg/kg; in assay [2], 63 mg/kg.

For the compound `CCCc1nn(C)c2c1C(c1ccccc1Cl)=NCC(=O)N2`, the minimal effective dose was over 40 mg/kg in assay [1] and 250 mg/kg in assay [2].

For the compound `CCCc1nn(C)c2c1C(c1ccccc1Cl)=NCC(=O)N2C`, the minimal effective dose in assay [1] was over 40 mg/kg; in assay [2], 63 mg/kg.

Regarding `CCCCc1nn(C)c2c1C(c1ccccc1Cl)=NCC(=O)N2`, the minimal effective dose in assay [1] is over 40 mg/kg; in assay [2], over 500 mg/kg.

Regarding `CCCCc1nn(C)c2c1C(c1ccccc1Cl)=NCC(=O)N2C`, the minimal effective dose in assay [1] was over 40 mg/kg; in assay [2], 125 mg/kg.

As for `CCn1nc(C)c2c1NC(=O)CN=C2c1ccccc1F`, the minimal effective dose in assay [1] is 2.5 mg/kg; in assay [2] it was 8 mg/kg.

For the compound `CCn1nc(C)c2c1N(C)C(=O)CN=C2c1ccccc1F`, the minimal effective dose in assay [1] amounted to 1.25 mg/kg; in assay [2] it was 4 mg/kg.

In the case of `CCn1nc(C)c2c1NC(=O)CN=C2c1ccccc1Cl`, the figures for the minimal effective dose in assay [1] and in assay [2] were 5 mg/kg and 8 mg/kg, respectively.

As to `CCn1nc(C)c2c1N(C)C(=O)CN=C2c1ccccc1Cl`, the minimal effective dose came to 0.63 mg/kg in assay [1] and 4 mg/kg in assay [2].

Consider `C=CCN1C(=O)CN=C(c2ccccc2Cl)c2c(C)nn(CC)c21`, for which the minimal effective dose is over 40 mg/kg in assay [1] and 63 mg/kg in assay [2].

As to `CCCn1nc(C)c2c1NC(=O)CN=C2c1ccccc1Cl`, the values for the minimal effective dose in assay [1] and in assay [2] were 40 mg/kg and 63 mg/kg, respectively.

As for `CCCn1nc(C)c2c1N(C)C(=O)CN=C2c1ccccc1Cl`, the minimal effective dose was 2.5 mg/kg in assay [1] and 16 mg/kg in assay [2].

For the compound `Cc1nn(C(C)C)c2c1C(c1ccccc1Cl)=NCC(=O)N2`, the minimal effective dose in assay [1] stood at 20 mg/kg; in assay [2], 16 mg/kg.

With `CCCCn1nc(C)c2c1NC(=O)CN=C2c1ccccc1Cl`, the values for the minimal effective dose in assay [1] and in assay [2] were 40 mg/kg and 32 mg/kg, respectively.

Turning to `CCCCn1nc(C)c2c1N(C)C(=O)CN=C2c1ccccc1Cl`, the minimal effective dose in assay [1] is 40 mg/kg; in assay [2], 16 mg/kg.

Regarding `CCCCn1nc(C)c2c1NC(=O)CN=C2c1cccc(Cl)c1`, the minimal effective dose in assay [1] was over 40 mg/kg; in assay [2] it was over 500 mg/kg.

`Cc1nn(C2CCCCC2)c2c1C(c1ccccc1Cl)=NCC(=O)N2`: the values for the minimal effective dose in assay [1] and in assay [2] were over 40 mg/kg and over 500 mg/kg, respectively.

Take `Cc1nn(C2CCCCC2)c2c1C(c1ccccc1Cl)=NCC(=O)N2C`: the minimal effective dose in assay [1] was over 40 mg/kg; in assay [2], 63 mg/kg.

As for `Cc1nn(-c2ccccc2)c2c1C(c1ccccc1)=NCC(=O)N2`, the minimal effective dose in assay [1] is over 40 mg/kg; in assay [2] it was over 500 mg/kg.

For the compound `Cc1nn(-c2ccccc2)c2c1C(c1ccccc1Cl)=NCC(=O)N2`, the minimal effective dose in assay [1] turned out to be 20 mg/kg; in assay [2], 500 mg/kg.

On to `Cc1nn(C)c2c1C(c1ccccc1)=[N+]([O-])CC(=O)N2C`, for which the results for the minimal effective dose in assay [1] and in assay [2] were over 40 mg/kg and 63 mg/kg, respectively.

For the compound `Cc1nn(C)c2c1C(c1ccccc1)=NC(O)C(=O)N2C` (stereo not given), the minimal effective dose worked out at 5 mg/kg in assay [1] and 16 mg/kg in assay [2].

With `Cc1nn(C)c2c1C(c1ccccc1F)=[N+]([O-])CC(=O)N2C`, the minimal effective dose in assay [1] stood at 10 mg/kg; in assay [2], 8 mg/kg.

Regarding `CC(=O)OC1N=C(c2ccccc2F)c2c(C)nn(C)c2N(C)C1=O` (stereo not given), the values for the minimal effective dose in assay [1] and in assay [2] were 20 mg/kg and 8 mg/kg, respectively.

Take `Cc1nn(C)c2c1C(c1ccccc1F)=NC(O)C(=O)N2C` (stereo not given): the minimal effective dose was found to be 2.5 mg/kg in assay [1] and 4 mg/kg in assay [2].

`CCc1nn(C)c2c1C(c1ccccc1)NCC(=O)N2C.Cl` (stereo not given): the minimal effective dose was over 40 mg/kg in assay [1] and 63 mg/kg in assay [2].

As to `Cc1nn(C)c2c1C(c1ccccc1F)NCC(=O)N2C.Cl` (stereo not given), the values for the minimal effective dose in assay [1] and in assay [2] were 1.2 mg/kg and 4 mg/kg, respectively.

For the compound `CN1C(=O)CN=C(c2ccccc2)c2cc(Cl)ccc21` [DIAZEPAM], the minimal effective dose in assay [1] is 1.25 mg/kg; in assay [2], 4 mg/kg.

As to `Cc1nn(C)c2c1C(c1ccccc1F)=NCC(=O)N2C.Cl` [ZOLAZEPAM HYDROCHLORIDE], the minimal effective dose worked out at 0.32 mg/kg in assay [1] and 2 mg/kg in assay [2].

Take `Cc1nn(C)c2c1C(c1ccccc1F)=NCC(=O)N2C` [ZOLAZEPAM]: the Ratio in assay [3] came out at 5. The minimal effective dose came to 0.32 mg/kg in assay [1] and 2 mg/kg in assay [2].

Values taken from ChEMBL document CHEMBL3272205, “Pyrazolodiazepines. 2. 4-Aryl-1,3-dialkyl-6,8-dihydropyrazolo[3,4-e] [1,4]diazepin-7(1H)-ones as antianxiety and anticonvulsant agents” (1977).
